# Assay: Vital signs, ECG, laboratory variables and WHO FC during switch from oral to i.v. selexipag in subjects with stable PAH
# Format: in vivo, human
# Procedure: This was a prospective, multicenter, open-label, single-sequence, cross-over, Phase 3 study. Based on the dose of selexipag received at study entry, subjects were allocated to one of the following groups, selexipag 200-1000 μg b.i.d. or selexipag 1200-1600 μg b.i.d. See, FIG. 1. The study comprised the following periods: (ii) Treatment and observation period: The treatment and observation period included the following consecutive periods: • Period 1 included oral selexipag pre-treatment period for 1 day, in-hospital. This period started with intake of the morning dose of oral selexipag on Day 1 at Visit 2 and ended the following day, before initiation of the first infusion of i.v. selexipag. • Period 2 included i.v. selexipag treatment period for 36 hours [3 infusions], in-hospital. This period started in the morning of Day 2 at Visit 2 with the start of the first infusion of i.v. selexipag and ended in the evening of Day 3 at Visit 2 before the evening administration of oral selexipag. Administration of oral selexipag was interrupted during the i.v. selexipag treatment period. • Period 3 included oral selexipag post-treatment period for 7 to 11 day. This period started in the evening of Day 3 at Visit 2 with the administration of oral selexipag and ended 7-11 days later, at Visit 3. The endpoints analyzed for (i) Period 1, Period 2, and Period 3 and follow-up period combined (ii) Period 1 and Period 2 combined, and (iii) Period 2 and Period 3 combined included discontinuations due to prostacyclin-associated AEs, discontinuations due to any AEs, AEs and SAEs, prostacyclin-associated AEs, PAH-related AEs, change from baseline in vital signs (systolic blood pressure [SBP], diastolic blood pressure [DBP], and pulse rate) and body weight, ECG abnormalities, marked laboratory abnormalities, and change from baseline in WHO FC.
# [1] = Period 1 (oral selexipag), total, N = 20
# [2] = Period 2 (iv selexipag), total, N = 20
# [3] = Period 2, high dose cohort (1200-1600 μg), N = 12
# [4] = Period 2, low dose cohort (200-1000 μg), N = 8
# [5] = Period 3 (oral selexipag) + Follow-up, total, N = 20
structure (smiles),measurement,setting,value
"CC(C)N(CCCCOCC(=O)NS(C)(=O)=O)c1cnc(-c2ccccc2)c(-c2ccccc2)n1 [selexipag, 2-{4-[(5,6-diphenylpyrazin-2-yl)(propan-2-yl)amino]butoxy}-N-(methanesulfonyl)acetamide]",Incidence of DBP < 50 (mmHg),[1],0 n (%)
same,Incidence of DBP decrease from baseline > 20 (mmHg),[1],1 (5.0) n (%)
same,Incidence of DBP ≥ 100 (mmHg),[1],0 n (%)
same,Incidence of SBP < 90 (mmHg),[1],0 n (%)
same,Incidence of SBP decrease from baseline > 40 (mmHg),[1],0 n (%)
same,Incidence of SBP ≥ 160 (mmHg),[1],0 n (%)
same,subjects with QTcF prolongation to >450 ms,Period 2,3 subjects
same,subjects with QTcF prolongation to >480 ms,Period 2,4 subjects
same,Incidence of DBP < 50 (mmHg),[2],5 n (%)
same,Incidence of DBP decrease from baseline > 20 (mmHg),[2],3 n (%)
same,Incidence of DBP ≥ 100 (mmHg),[2],0 n (%)
same,Incidence of SBP < 90 (mmHg),[2],2 n (%)
same,Incidence of SBP decrease from baseline > 40 (mmHg),[2],2 n (%)
same,Incidence of SBP ≥ 160 (mmHg),[2],1 n (%)
same,mean change from pre- to post-infusion in heart rate,"Period 2, infusion 1",2.1 bpm
same,mean change from pre- to post-infusion in heart rate,"Period 2, infusion 2",0.1 bpm
same,mean change from pre- to post-infusion in heart rate,"Period 2, infusion 3",3.5 bpm
same,Incidence of DBP < 50 (mmHg),[3],3 n (%)
same,Incidence of DBP decrease from baseline > 20 (mmHg),[3],2 n (%)
same,Incidence of DBP ≥ 100 (mmHg),[3],0 n (%)
same,Incidence of SBP < 90 (mmHg),[3],1 n (%)
same,Incidence of SBP decrease from baseline > 40 (mmHg),[3],1 n (%)
same,Incidence of SBP ≥ 160 (mmHg),[3],1 n (%)
same,Incidence of DBP < 50 (mmHg),[4],2 (25.0) n (%)
same,Incidence of DBP decrease from baseline > 20 (mmHg),[4],1 (12.5) n (%)
same,Incidence of DBP ≥ 100 (mmHg),[4],0 n (%)
same,Incidence of SBP < 90 (mmHg),[4],1 (12.5) n (%)
same,Incidence of SBP decrease from baseline > 40 (mmHg),[4],1 (12.5) n (%)
same,Incidence of SBP ≥ 160 (mmHg),[4],0 n (%)
same,Incidence of DBP < 50 (mmHg),[5],0 n (%)
same,Incidence of DBP decrease from baseline > 20 (mmHg),[5],2 (10.0) n (%)
same,Incidence of DBP ≥ 100 (mmHg),[5],0 n (%)
same,Incidence of SBP < 90 (mmHg),[5],0 n (%)
same,Incidence of SBP decrease from baseline > 40 (mmHg),[5],0 n (%)
same,Incidence of SBP ≥ 160 (mmHg),[5],0 n (%)
same,subjects (of the 7 with QTcF prolongation in Period 2) who already had QTcF prolongation to >450 ms in Period 1,Visit 2 Day 2 prior to the start of i.v. infusion,6
same,AE of hypotension,any subject,no AE of hypotension
same,changes in systolic blood pressure of >40 mmHg,any subject,No changes
same,"hemoglobin, mean change from baseline",at Visit 3 (Day 12±2 days),1.2 g/L
same,"hemoglobin, mean change from baseline",baseline (129.4 g/L) to Visit 2 Day 3,-5.7 g/L
same,changes in WHO FC,"during the study, any subject",No changes
same,changes from baseline in other hematology and clinical chemistry variables,"human, in vivo",unremarkable

# — patent US20220323437A1, “METHODS FOR TREATING PULMONARY ARTERIAL HYPERTENSION” (ACTELION PHARMACEUTICALS LTD, priority 2019, published 2022)
